According to patent publication US10696665B2, “Mutant IDH1 inhibitors” (Eli Lilly and Company, priority 2016, dated 2020):

Biological target: Wild-type IDH1 (Homo sapiens (Human), UniProt O75874)
Assay: Biochemical assay for wild-type IDH1 enzyme (isocitrate to αKG)
Settings: mean ± SEM
Procedure: IDH1 and IDH2 enzymes catalyze the conversion of isocitrate to αKG. Wild-type IDH1 (National Center for Biotechnology Information, Accession: NP_001269316.1) and IDH2 (National Center for Biotechnology Information, Accession: EAX02082.1) proteins containing N-terminal His-tag are expressed in E. coli and purified using nickel affinity chromatography by methods commonly used and well known to those skilled in the art. The enzyme assays are carried out in V-bottom 96 well polypropylene plates containing 100 mM Tris-HCl buffer at pH 7.5, 1 mM DTT, 0.005% TRITON™ X-100, 120 mM NaCl. For the IDH1 wild-type assay isocitrate, NADP^+ and MnCl2 are included at the concentrations of 85 μM, 50 μM and 20 μM respectively. For the IDH2 wild-type assay isocitrate, NADP^+ and MnCl2 are included at the concentrations of 30 μM, 50 μM and 10 μM respectively. Inhibitors dissolved in a DMSO stock solution are diluted in the reaction mixture at a final DMSO concentration of 4%. The enzyme assay is terminated (quenched) by adding ACN (50:50) containing d (d6-αKG) as an internal standard for mass spectrometry analysis. Ten microliters of reaction mixture is combined with 100 μL of water, 50 μL of 1 M O-benzylhydroxylamine in pyridine buffer (8.6% pyridine, pH 5), and 50 μL of 1 M EDC in pyridine buffer. Following derivatization at room temperature for one hour, samples are extracted with EtOAc (600 μL). […] of the upper layer is removed, dried under heated nitrogen, and reconstituted with MeOH/water (1:1) (100 μL). Ten μL of derivatized sample is injected onto an LC-MS system consisting of a Shimadzu Prominence 20A HPLC system and a Thermo Quantum Ultra™ triple quadrupole mass spectrometer. Analytes are separated on a Waters XBridge™ C18 column (2.1×50 mm, […]) with a flow rate of 0.6 mL/minute. Mobile phase A is 0.1% formic acid in water and mobile phase B is MeOH. The αKG signal detected is transformed into analyte concentration using a calibration curve generated using known αKG concentrations. […] IC50 values are obtained from the individual % inhibition values at different compound concentrations using a 4-parameter equation. These calculations are carried out using Activity Base (IDBS) or Screener (Genedata) data analysis programs.

Sequence of Wild-type IDH1 (O75874 whole entry): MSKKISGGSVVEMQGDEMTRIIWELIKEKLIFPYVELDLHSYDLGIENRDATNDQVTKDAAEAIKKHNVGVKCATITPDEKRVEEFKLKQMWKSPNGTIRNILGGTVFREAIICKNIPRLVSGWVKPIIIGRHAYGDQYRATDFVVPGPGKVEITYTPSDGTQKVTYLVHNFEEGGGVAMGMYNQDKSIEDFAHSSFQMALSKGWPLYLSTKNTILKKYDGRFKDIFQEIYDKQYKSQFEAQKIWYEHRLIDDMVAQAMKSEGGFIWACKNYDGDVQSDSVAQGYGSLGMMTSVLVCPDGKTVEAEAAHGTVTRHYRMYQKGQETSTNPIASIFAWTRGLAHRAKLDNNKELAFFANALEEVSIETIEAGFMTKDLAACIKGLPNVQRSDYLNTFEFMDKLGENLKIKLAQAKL

SMILES	IC50 [nM]
C=CC(=O)N1CCN(C(CC2CC2)c2ccc([C@H](C)Nc3nccc(N4C(=O)OC[C@@H]4[C@@H](C)O)n3)cc2)CC1 (stereo partly shown) [Example 26]	145
C=CC(=O)N1CCN(Cc2ccc([C@H](C)Nc3nccc(N4C(=O)OC[C@@H]4CC)n3)cc2)CC1 [Example 2, (S)-3-(2-(((S)-1-(4-((4-acryloylpiperazin-1-yl)methyl)phenyl)ethyl)amino)pyrimidin-4-yl)-4-ethyloxazolidin-2-one]	3150 ± 70
C=CC(=O)N1CCN(Cc2ccc([C@H](C)Nc3nccc(N4C(=O)OC[C@@H]4C(C)C)n3)cc2)CC1 [Example 1, (S)-3-(2-(((S)-1-(4-((4-Acryloylpiperazin-1-yl)methyl)phenyl)ethyl)amino)pyrimidin-4-yl)-4-isopropyloxazolidin-2-one]	1560 ± 200

Results, then the molecule that gave them:

IC50 [nM]	SMILES
6760 ± 1350	C=CC(=O)N1CCN(Cc2ccc([C@H](C)Nc3nccc(N4C(=O)OCC4(C)C)n3)cc2)CC1 [Example 4, (S)-3-(2-((1-(4-((4-acryloylpiperazin-1-yl)methyl)phenyl)ethyl)amino)pyrimidin-4-yl)-4,4-dimethyloxazolidin-2-one]
2200	C=CC(=O)N1CCN(Cc2ccc([C@H](C)Nc3nc(F)cc(N4C(=O)OCC4(C)C)n3)cc2)CC1 [Example 11, (S)-3-(2-((1-(4-((4-acryloylpiperazin-1-yl)methyl)phenyl)ethyl)amino)-6-fluoropyrimidin-4-yl)-4,4-dimethyloxazolidin-2-one]
2460 ± 300	C=CC(=O)N1CCN(Cc2ccc([C@H](C)Nc3ncc(F)c(N4C(=O)OC[C@@H]4C(C)C)n3)cc2)CC1 [Example 5, (S)-3-(2-(((S)-1-(4-((4-acryloylpiperazin-1-yl)methyl)phenyl)ethyl)amino)-5-fluoropyrimidin-4-yl)-4-isopropyloxazolidin-2-one]
15500 ± 500	C=CC(=O)N1CCN(Cc2ccc([C@H](C)Nc3nccc(N4C(=O)OC[C@@H]4C)n3)cc2)CC1 [Example 3, (S)-3-(2-(((S)-1-(4-((4-acryloylpiperazin-1-yl)methyl)phenyl)ethyl)amino)pyrimidin-4-yl)-4-methyloxazolidin-2-one]
